Columns and labels:
mice = experiment: mFST with SSRI (fluoxetine combination); assay type: in vivo, mouse
Procedure: mFST is an established in vivo assay for antidepressant activity (Li et al. J Pharmacol Exp Ther. 319(1):254-9, 2006.). […] J Pharmacol Exp Ther. 319(1):254-9, 2006.). Briefly, male NIH-Swiss mice (Harlan Sprague-Dawley, Indianapolis, Ind.) weighing between 25-30 g are used. Group housed animals are removed from the vivarium to the testing area in their own cages and allowed to adapt to the new environment for at least 1 hour before testing. Compounds where R^1 and R^2 are both hydrogen are dissolved in water with minimal NaOH added for dissolution and are administered i.p. […] Mice are placed in a cylinder (diameter: 10 cm; height: 25 cm) filled with 6 cm of water (22-25° C.) for 6 min. The duration of immobility during the last 4 min. of the 6 min. period of the test was scored. A mouse is recorded as immobile when floating motionless or making only those movements necessary to keep its head above water. The compounds of the invention may also be tested in combination with other compounds useful for the treatment of depressive disorders, as for example SSRI's, for their ability to enhance the antidepressant-like effects over that of either compound alone.

[1] = Brain and plasma levels of active di-acid in the fluoxetine combination study; assay type: in vivo, mouse; settings: combination with fluoxetine versus alone
Source text: The compounds of the invention may also be tested in combination with other compounds useful for the treatment of depressive disorders, as for example SSRI's, for their ability to enhance the antidepressant-like effects over that of either compound alone.

male Wistar rats = experiment: Wakefulness and behavioral monitoring in rats (EEG/EMG/LMA); assay type: in vivo, rat; settings: for Locomotor Activity Intensity, Mean (difference from vehicle controls): averaged over the first 7 hr post-treatment; for Cumulative Time Awake 8-19 hours, Mean (difference from vehicle controls): rebound hypersomnolence measure
Procedure: Wakefulness and Behavioral Monitoring in Rats:
Representative compounds of the present invention are tested in rats for their ability to increase the amount of time in a state of wakefulness without undesired effects such as inhibition of REM sleep, waking motor impairment (disproportionate hyper- or hypolocomotion), and/or rebound hypersomnia Test animals are continuously monitored by electro-encephalograms (EEG), electromyograms (EMG), and motion to measure cumulative time awake, rebound hypersomnia, and locomotor activity intensity during wakefulness. Methods for such studies are known in the art (see for example methods described in Edgar D M, Seidel W F. Modafinil induces wakefulness without intensifying motor activity or subsequent rebound hypersomnolence in the rat. J Pharmacology & Experimental Therapeutics 1997; 283: 757-769; van Gelder R N, Edgar D M, Dement W C. Real-time automated sleep scoring: validation of a microcomputer-based system for mice. Sleep 1991, 14: 48-55; and Gross B A, Walsh C M, Turakhia A A, Booth V, Mashour G A, Poe G R. Open-source logic-based automated sleep scoring software using electrophysiological recordings in rats. J Neurosci Methods. 2009; 184(1):10-8.) Studies are conducted as follows:
Adult, male Wistar rats (approximately 270-300 g at time of surgery) are surgically fitted for chronic recording of EEG, EMG, body temperature, and motion as follows: Rats are surgically prepared with a cranial implant consisting of four stainless steel screws for EEG recording (two frontal [3.9 mm anterior from bregma, and ±2.0 mm mediolaterally] and two occipital [6.4 mm posterior from bregma, ±5.5 mm mediolaterally]), and with two Teflon-coated stainless steel wires for EMG recording (positioned under the nuchal trapezoid muscles). All leads are soldered to a miniature connector (Microtech, Boothwyn, Pa.) prior to surgery. The implant assembly is affixed to the skull by the combination of the stainless steel EEG recording screws, cyanoacrylate applied between the implant connector and skull, and dental acrylic. Body temperature and locomotor activity is monitored via a miniature transmitter (Minimitter PDT4000G, Philips Respironics, Bend, Oreg.) surgically placed into the abdomen. At least 3 weeks are allowed for recovery.
Each rat is housed individually within a microisolator cage modified with an inserted polycarbonate filter-top riser to allow more vertical headroom. A flexible cable that minimally restricts movement is connected at one end to a commutator affixed to the cage top and at the other end to the animal's cranial implant. Each cage is located within separate, ventilated compartments of a stainless steel sleep-wake recording chamber. Food and water are available ad libitum and the ambient temperature is maintained at about 23±1° C. A 24-hr light-dark cycle (LD 12:12) using fluorescent light is maintained throughout the study. Relative humidity averages approximately 50%. Animals are undisturbed for at least 30 hrs before and after each treatment.
Compounds where R^1 and R^2 are both hydrogen are dissolved in water with minimal NaOH added for dissolution and are administered i.p in a volume of 1.0 mL per kg body weight. Compounds where R^1 and/or R^2 are other than hydrogen are administer p.o. in a volume of 2 mL per kg body weight in one of two alternative vehicles: i) 2.5% N-methyl-2-pyrrolidinone in hydroxyethylcellulose; or ii) 10% acacia with 0.05% Dow Corning® Antifoam in water. The vehicle or one of the compound dose levels is administered pseudo-randomly such that no rat receives the same treatment twice, and no rat receives more than two of the 8 treatments in any one study. Each rat is removed from its cage for about a minute to be weighed and treated. At least 6 days “washout” period precede and follow each treatment.
Sleep and wakefulness discrimination may be automated (e.g., Van Gelder et al. 1991; Edgar et al. 1997, Winrow et al., 2010; Gross et al., 2009). […]

mGlu2+/+ mice = experiment: mFST in mGlu2+/+ littermate mice; assay type: in vivo, mouse; settings: 30 mg/kg, po, 120 min prior
male NIH-Swiss mice = experiment: Forced-swim test in mice (mFST); assay type: in vivo, mouse
Source text: Forced-Swim Test in Mice (mFST)
mFST is an established in vivo assay for antidepressant activity (Li et al. J Pharmacol Exp Ther. 319(1):254-9, 2006.). […] The mFST was used to evaluate potential antidepressant-like activity of novel mGlu2/3 antagonists essentially as described in previously published methods (see for example, Li et al. J Pharmacol Exp Ther. 319(1):254-9, 2006.). Briefly, male NIH-Swiss mice (Harlan Sprague-Dawley, Indianapolis, Ind.) weighing between 25-30 g are used. Group housed animals are removed from the vivarium to the testing area in their own cages and allowed to adapt to the new environment for at least 1 hour before testing. Compounds where R^1 and R^2 are both hydrogen are dissolved in water with minimal NaOH added for dissolution and are administered i.p. Compounds where R^1 and/or R^2 are other than hydrogen are prepared on the day of use in 2.0-2.5% N-methyl-pyrrolidinone and then suspended in 1% HEC, 0.25% Tween 80, and 0.05% Dow antifoam, and administered orally. Mice are placed in a cylinder (diameter: 10 cm; height: 25 cm) filled with 6 cm of water (22-25° C.) for 6 min. The duration of immobility during the last 4 min. of the 6 min. period of the test was scored. A mouse is recorded as immobile when floating motionless or making only those movements necessary to keep its head above water.

SMILES: CC(C)OC(=O)OCOC(=O)[C@H]1[C@@H]2[C@H](O)[C@@H](OCc3ccc(Cl)c(Cl)c3)[C@@](N)(C(=O)OCOC(=O)OC(C)C)[C@H]12.Cl [Example 10, Bis({[(1-methylethoxy)carbonyl]oxy}methyl) (1S,2R,3S,4S,5R,6R)-2-amino-3-[(3,4-dichlorobenzyl)oxy]-4-hydroxybicyclo[3.1.0]hexane-2,6-dicarboxylate hydrochloride]
- antidepressant-like effect in combination with fluoxetine (mice; Example 10 17 mg/kg p.o. with fluoxetine 10 mg/kg i.p.): significantly increase the antidepressant-like effect over that of either compound alone
- Maximal Decrease (1 − compound/control) * 100% (mice; Example 10 17 mg/kg p.o., fluoxetine 10 mg/kg i.p., alone or combined): 24.5%
- Immobilization Time (mice; Example 10 17 mg/kg p.o., fluoxetine 10 mg/kg i.p., alone or combined, vehicle 174): 105 s
- brain and plasma levels of the active di-acid moiety [1]: no increase in exposure levels
- Cumulative Time Awake first 7 hours, Mean (difference from vehicle controls) (male Wistar rats; 10 mg/kg PO): 20.4 min
- Locomotor Activity Intensity, Mean (difference from vehicle controls) (male Wistar rats; 10 mg/kg PO): 2.7 counts of LMA per minute of EEG-defined wakefulness
- Cumulative Time Awake 8-19 hours, Mean (difference from vehicle controls) (male Wistar rats; 10 mg/kg PO): 15.2 min
- Cumulative Time Awake first 7 hours, Mean (difference from vehicle controls) (male Wistar rats; 30 mg/kg PO): 48.8 min
- Locomotor Activity Intensity, Mean (difference from vehicle controls) (male Wistar rats; 30 mg/kg PO): 0.5 counts of LMA per minute of EEG-defined wakefulness
- Cumulative Time Awake 8-19 hours, Mean (difference from vehicle controls) (male Wistar rats; 30 mg/kg PO): 25.6 min
- Cumulative Time Awake first 7 hours, Mean (difference from vehicle controls) (male Wistar rats; 60 mg/kg PO): 64.7 min
- Locomotor Activity Intensity, Mean (difference from vehicle controls) (male Wistar rats; 60 mg/kg PO): 4.2 counts of LMA per minute of EEG-defined wakefulness
- Cumulative Time Awake 8-19 hours, Mean (difference from vehicle controls) (male Wistar rats; 60 mg/kg PO): 34.7 min
- immobility time (mGlu2+/+ mice): decrease immobility time
- ED60 (male NIH-Swiss mice; Mus musculus, po, immobility in last 4 min of 6 min): 22.1 mg/kg
- Maximal Decrease (1 − compound/control) * 100% (male NIH-Swiss mice; p.o., immobility time): 50.5%

From patent publication US9056844B2, “4-substituted-3-benzyloxy-bicyclo[3.1.0]hexane compounds as mGluR 2/3 antagonists” (Eli Lilly and Company, priority 2010, dated 2015)
